TGI data for 13 molecules are collected here from PubChem BioAssay (NCI).

Among the test systems are M19-MEL melanoma; K-562 leukemia; SNB-78 CNS; HOP-18 NSCLC; LXFL 529 NSCLC; KM20L2 colon; MOLT-4 leukemia; SNB-19 CNS; DLD-1 colon; HS 578T breast; T-47D breast.
Experiment in all cases: NCI-60 cell line screen, 48 h

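Grown in 96-well plates, cells were treated for 48 hours with each compound at five concentrations. Insufficient inhibition: endpoint recorded as highest concentration tested. At the TGI there is no net growth.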 Bounds are passed on as bounds.

Take `COc1cccc(OC)c1/C=N\N1C(=O)c2ccccc2C1=O`: the TGI was above 100 µM in the assay on M19-MEL melanoma; above 100 µM with K-562 leukemia; above 100 µM with SNB-78 CNS; above 100 µM with HOP-18 NSCLC; above 100 µM in the assay with LXFL 529 NSCLC; 37.4 µM in the assay with KM20L2 colon. The TGI in the assay on MOLT-4 leukemia, in the assay on SNB-19 CNS and in the assay on DLD-1 colon was above 100 µM in each case.

Regarding `CCOC(=O)C1=C(O)c2c(OC)ccc(OC)c2C(=O)C1=O`, the TGI in the assay with M19-MEL melanoma, in the assay with K-562 leukemia, in the assay with SNB-78 CNS, with HOP-18 NSCLC, in the assay with KM20L2 colon and with MOLT-4 leukemia was above 100 µM each time. Besides, the TGI in the assay with SNB-19 CNS and in the assay with DLD-1 colon was above 100 µM each time.

Turning to `O=C(/C=C/c1ccc(OCC(=O)N2CCN(c3ccccc3)CC2)cc1)c1ccccc1`, the TGI in the assay with M19-MEL melanoma was above 100 µM; with K-562 leukemia, above 43 µM; with SNB-78 CNS it was above 100 µM; with HOP-18 NSCLC, above 82.7 µM; with LXFL 529 NSCLC, above 94.2 µM; in the assay with KM20L2 colon, above 66 µM. The values for the TGI in the assay with MOLT-4 leukemia, in the assay on SNB-19 CNS and in the assay with DLD-1 colon were above 25.2 µM, above 82.9 µM and above 100 µM, respectively.

As to `CCOC(=O)/C(=C/c1ccc[nH]1)P(=O)(OCC)OCC`, the TGI with M19-MEL melanoma, in the assay on K-562 leukemia, with SNB-78 CNS, with HOP-18 NSCLC, with LXFL 529 NSCLC and in the assay on KM20L2 colon was above 100 µM in each case. For the same molecule, the TGI in the assay on MOLT-4 leukemia, with SNB-19 CNS and in the assay with DLD-1 colon was above 100 µM throughout.

`COC(=O)C1=C(C)C(=O)C2(CCCCCC2C(=O)OC)C1` (stereo not drawn): the TGI in the assay with M19-MEL melanoma, in the assay with K-562 leukemia, in the assay on SNB-78 CNS, with HOP-18 NSCLC, in the assay on LXFL 529 NSCLC and with KM20L2 colon was above 100 µM each time. Moreover, the TGI with MOLT-4 leukemia, in the assay with SNB-19 CNS and in the assay on DLD-1 colon was above 100 µM in each case.

Consider `NC1=NN(c2ccccc2)C(=O)C1/C(=N\NC(=O)c1cc2ccccc2cc1O)C(=O)Nc1ccc(Cl)cc1` (stereo not drawn), for which the TGI in the assay with M19-MEL melanoma is 89.6 µM; with K-562 leukemia, above 100 µM; in the assay on SNB-78 CNS it was above 100 µM; in the assay with HOP-18 NSCLC it was above 100 µM; in the assay with LXFL 529 NSCLC it was above 100 µM; in the assay on KM20L2 colon, above 100 µM. Besides, the TGI is 40.5 µM with MOLT-4 leukemia, above 100 µM with SNB-19 CNS and above 100 µM in the assay with DLD-1 colon.

Consider `COC(=O)/C(=C/c1ccc(OC)cc1)c1cc(OC)c(OC)c(OC)c1`, for which the TGI in the assay on M19-MEL melanoma was above 100 µM; in the assay on K-562 leukemia it was above 58.4 µM; in the assay with SNB-78 CNS, above 100 µM; with HOP-18 NSCLC, above 100 µM; with HS 578T breast, 5.69 µM; with LXFL 529 NSCLC it was above 100 µM. For the same molecule, the TGI in the assay on T-47D breast is above 100 µM; in the assay with MOLT-4 leukemia it was above 97.5 µM; with SNB-19 CNS, 98 µM; in the assay with DLD-1 colon it was above 100 µM.

Turning to `COC(=O)c1ccccc1NCc1cc(O)ccc1O`, the TGI in the assay with M19-MEL melanoma was 31.7 µM; in the assay on K-562 leukemia it was above 59 µM; in the assay with SNB-78 CNS it was 66.6 µM; in the assay on HOP-18 NSCLC, 27.6 µM; in the assay with HS 578T breast, 61.5 µM; in the assay on LXFL 529 NSCLC, 32.9 µM. Also, the TGI in the assay with KM20L2 colon was above 100 µM; with T-47D breast it was 31.8 µM; in the assay on MOLT-4 leukemia, 76.9 µM; in the assay on SNB-19 CNS it was above 74.1 µM; in the assay with DLD-1 colon, 43 µM.

On to `CN1OC(CO)CC12C1CC3CC(C1)CC2C3` (stereo not drawn), for which the TGI in the assay with M19-MEL melanoma, in the assay on K-562 leukemia, in the assay on HOP-18 NSCLC, in the assay with LXFL 529 NSCLC, in the assay with KM20L2 colon and in the assay on MOLT-4 leukemia was above 100 µM each time. For the same molecule, the TGI with SNB-19 CNS and with DLD-1 colon was above 100 µM throughout.

Take `CCCNc1ncnc2c1cnn2C`: the TGI with M19-MEL melanoma, in the assay with K-562 leukemia, in the assay on SNB-78 CNS, with HOP-18 NSCLC, in the assay with KM20L2 colon and in the assay with MOLT-4 leukemia was above 100 µM throughout. The molecule further registered a TGI with SNB-19 CNS above 100 µM.

Turning to `Cn1ncc2c(c1=O)Nc1ccccc1S2(=O)=O`, the TGI in the assay with M19-MEL melanoma, with K-562 leukemia, in the assay on SNB-78 CNS, in the assay with HOP-18 NSCLC, in the assay with LXFL 529 NSCLC and with KM20L2 colon was above 100 µM each time. For the same molecule, the TGI in the assay on MOLT-4 leukemia, in the assay with SNB-19 CNS and in the assay on DLD-1 colon was above 100 µM each time.

Turning to `Cn1nc(-c2ccccc2)c(C(=O)/C=C/c2ccccc2)c(N2CCCC2)c1=O`, the TGI in the assay with M19-MEL melanoma was 37.3 µM; in the assay with K-562 leukemia, 40.9 µM; in the assay on HOP-18 NSCLC, 47.1 µM; in the assay on LXFL 529 NSCLC it was 34.4 µM; in the assay on KM20L2 colon, 33.4 µM; with MOLT-4 leukemia it was 22.3 µM. The molecule further displayed a TGI with DLD-1 colon of 34.2 µM.

For the molecule `NC1CC(n2ccc(=O)[nH]c2=O)OC1C(O)CO` (stereo not drawn), the TGI with M19-MEL melanoma, in the assay on K-562 leukemia, in the assay with HOP-18 NSCLC, in the assay with LXFL 529 NSCLC, in the assay on KM20L2 colon and in the assay on MOLT-4 leukemia was above 100 µM throughout. The TGI in the assay on SNB-19 CNS and in the assay on DLD-1 colon was above 100 µM each time.
